Test results as given in article PMC9137552, “Structural Characterization of Two Short Unspecific Peroxygenases: Two Different Dimeric Arrangements” (Antioxidants, 2022).
Where two headings read alike, the source gives them in different places.

Legend:
[1] = target: recombinant unspecific peroxygenase from Marasmius rotula (rMroUPO), native (nonmutated) (Marasmius rotula); assay: SEC; Superdex 75, isocratic elution with 10 mM Tris (pH 7.4), 0.15 M NaCl; masses against standards, compared with SDS-PAGE with mercaptoethanol; P201stop analysed during its last purification step
[2] = target: rCviUPO C235A variant (Collariella virescens); assay: AUC + other: dynamic light scattering; sedimentation velocity, c(s) distributions (SEDFIT); diffusion coefficients from parallel DLS; molecular mass by the Svedberg equation
rCviUPO [3] = tested on: T1, rCviUPO; settings: read-out: K228stop; K228stop variant; 1 mM H2O2; 0.1 M acetate pH 4.0
T1 construct: gene CviUPO

rCviUPO [4] = tested on: T1, rCviUPO; settings: read-out: C235A; 1 mM H2O2; 0.1 M acetate pH 4.0
rMroUPO [5] = tested on: T2, rMroUPO; assay: initial rates, absorbance at […] nm, Michaelis-Menten fit; type: biochemical, Marasmius rotula; settings: 5 mM H2O2; 0.1 M acetate pH 5.0
T2 construct: gene MroUPO; mature enzyme without signal peptide, initial Met added, no tag, codon-optimised in pET23a, E. coli BL21, non-glycosylated; homodimer (C227-C227' disulfide), monomer 26-27 kDa; short UPO

rCviUPO [6] = tested on: T3, rCviUPO; assay: as above; type: biochemical, Collariella virescens; settings: 1 mM H2O2; 0.1 M acetate pH 3
T3 construct: gene CviUPO; mature enzyme without signal peptide, initial Met added, no tag, codon-optimised in pET23a, E. coli BL21, non-glycosylated; homodimer, monomer 26-27 kDa; known only as recombinant enzyme; short UPO

rMroUPO [7] = tested on: T2, rMroUPO; assay: as above; type: biochemical, Marasmius rotula; settings: 5 mM H2O2; 0.1 M acetate pH 4.6
rCviUPO [8] = tested on: T3, rCviUPO; assay: as above; type: biochemical, Collariella virescens; settings: K228stop variant; 1 mM H2O2; pH 4.0 (table note; methods text gives pH 3 or 5)
rCviUPO [9] = tested on: T3, rCviUPO; assay: as above; type: biochemical, Collariella virescens; settings: 1 mM H2O2; pH 4.0 (table note; methods text gives pH 3 or 5); read-out: C235A
[10] = target: rCviUPO K228stop variant (C-terminal tail deletion) (Collariella virescens); assay: AUC + other: dynamic light scattering; sedimentation velocity, c(s) distributions (SEDFIT); diffusion coefficients from parallel DLS; molecular mass by the Svedberg equation
rMroUPO [11] = tested on: T2, rMroUPO; assay: initial rates, absorbance at […] nm, Michaelis-Menten fit; type: biochemical, Marasmius rotula; settings: 5 mM H2O2; 0.1 M tartrate pH 4.0
rCviUPO [12] = tested on: T3, rCviUPO; assay: as above; type: biochemical, Collariella virescens; settings: 1 mM H2O2; 0.1 M tartrate pH 5.0
rCviUPO [13] = tested on: T3, rCviUPO; assay: as above; type: biochemical, Collariella virescens; settings: 1 mM H2O2; 0.1 M tartrate pH 5.0; read-out: C235A
rCviUPO [14] = tested on: T3, rCviUPO; assay: as above; type: biochemical, Collariella virescens; settings: K228stop variant; 1 mM H2O2; 0.1 M tartrate pH 5.0
[15] = target: recombinant unspecific peroxygenase from Collariella virescens (rCviUPO), native (nonmutated) (Collariella virescens); assay: SEC; Superdex 75, isocratic elution with 10 mM Tris (pH 7.4), 0.15 M NaCl; masses against standards, compared with SDS-PAGE with mercaptoethanol; P201stop analysed during its last purification step
[16] = target: recombinant unspecific peroxygenase from Collariella virescens (rCviUPO), native (nonmutated) (Collariella virescens); assay: AUC + other: dynamic light scattering; sedimentation velocity, c(s) distributions (SEDFIT); diffusion coefficients from parallel DLS; molecular mass by the Svedberg equation

## recombinant unspecific peroxygenase from Marasmius rotula (rMroUPO), native (nonmutated) (enzyme)
[1]
  stoichiometry N: 2

## rCviUPO C235A variant (enzyme)
[2]
  stoichiometry N: 2

## CCn1c(=NN=c2sc3cc(S(=O)(=O)O)ccc3n2CC)sc2cc(S(=O)(=O)O)ccc21 [ABTS, 2,2′-azino-bis(3-ethylbenzothiazoline-6-sulfonic acid)]
rCviUPO [3]
  Km: 110 ± 15 µM
rCviUPO [4]
  Km: 87 ± 7 µM
rMroUPO [5]
  Km: 246 ± 3 µM

## COc1ccc(CO)cc1OC [Veratryl alcohol]
rCviUPO [6]
  Km: 2940 ± 160 µM
rMroUPO [7]
  Km: 54.2 ± 16.7 µM
rCviUPO [8]
  Km: 55300 µM
rCviUPO [9]
  Km: 7240 ± 820 µM

## rCviUPO K228stop variant (C-terminal tail deletion) (domain or fragment)
[10]
  stoichiometry N: 2

## COc1cccc(OC)c1O [DMP, 2,6-dimethoxyphenol]
rMroUPO [11]
  Km: 206 ± 38 µM
rCviUPO [12]
  Km: 4930 ± 470 µM
rCviUPO [13]
  Km: 4500 ± 424 µM
rCviUPO [14]
  Km: 3720 ± 250 µM

## recombinant unspecific peroxygenase from Collariella virescens (rCviUPO), native (nonmutated) (enzyme)
[15]
  stoichiometry N: 2
[16]
  stoichiometry N: 2
